Measured values: PubChem BioAssay AID256 (DTP/NCI, 2004)
Where “and” joins values, the source holds several entries; their conditions need not be identical. Equal values may be shown once. Toxic doses and inconclusive results are not listed. Rule for the calls: active = survival T/C of 150% or more; inactive = T/C below 125% in these data.

System: CD2F1 mice, L1210 leukemia ip, survival T/C
Assay: NCI In Vivo Anticancer Drug Screen. Data for tumor model L1210 Leukemia (intraperitoneal) in CD2F1 (CDF1) mice
Settings: higher = longer survival
Procedure, shortened: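 Implant tumor; dose compound or vehicle; measure endpoint in both groups; report treated divided by control.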

[1] = endpoint: mean survival time, dose: 12.5 mg/kg/injection, schedule: Q01DX005 (ip), vehicle: distilled water + Tween-80
[2] = endpoint: mean survival time, dose: 25.0 mg/kg/injection, schedule: Q01DX005 (ip), vehicle: distilled water + Tween-80
[3] = endpoint: mean survival time, dose: 50.0 mg/kg/injection, schedule: Q01DX005 (ip), vehicle: distilled water + Tween-80
[4] = endpoint: mean survival time, dose: 100.0 mg/kg/injection, schedule: Q01DX005 (ip), vehicle: distilled water + Tween-80
[5] = endpoint: mean survival time, dose: 200.0 mg/kg/injection, schedule: Q01DX005 (ip), vehicle: distilled water + Tween-80
[6] = endpoint: mean survival time, dose: 100.0 mg/kg/injection, schedule: Q01DX001 (ip), vehicle: saline with Tween-80
[7] = endpoint: mean survival time, dose: 200.0 mg/kg/injection, schedule: Q01DX001 (ip), vehicle: saline with Tween-80
[8] = endpoint: mean survival time, dose: 400.0 mg/kg/injection, schedule: Q01DX001 (ip), vehicle: saline with Tween-80
[9] = endpoint: mean survival time, dose: 100.0 mg/kg/injection, schedule: Q04DX003 (ip), vehicle: saline with Tween-80
[10] = endpoint: mean survival time, dose: 200.0 mg/kg/injection, schedule: Q04DX003 (ip), vehicle: saline with Tween-80
[11] = endpoint: mean survival time, dose: 400.0 mg/kg/injection, schedule: Q04DX003 (ip), vehicle: saline with Tween-80
[12] = endpoint: mean survival time, dose: 100.0 mg/kg/injection, schedule: Q01DX001 (ip), vehicle: saline
[13] = endpoint: mean survival time, dose: 100.0 mg/kg/injection, schedule: Q04DX003 (ip), vehicle: saline
[14] = endpoint: mean survival time, dose: 200.0 mg/kg/injection, schedule: Q04DX003 (ip), vehicle: saline
[15] = endpoint: mean survival time, dose: 400.0 mg/kg/injection, schedule: Q04DX003 (ip), vehicle: saline
[16] = endpoint: mean survival time, dose: 100.0 mg/kg/injection, schedule: Q01DX009 (ip), vehicle: saline with Tween-80
[17] = endpoint: mean survival time, dose: 200.0 mg/kg/injection, schedule: Q01DX009 (ip), vehicle: saline with Tween-80
[18] = endpoint: mean survival time, dose: 400.0 mg/kg/injection, schedule: Q01DX009 (ip), vehicle: saline with Tween-80
[19] = endpoint: mean survival time, dose: 50.0 mg/kg/injection, schedule: Q01DX009 (ip), vehicle: saline with Tween-80
[20] = endpoint: mean survival time, dose: 75.0 mg/kg/injection, schedule: Q01DX001 (ip), vehicle: saline with Tween-80
[21] = endpoint: mean survival time, dose: 150.0 mg/kg/injection, schedule: Q01DX001 (ip), vehicle: saline with Tween-80
[22] = endpoint: mean survival time, dose: 100.0 mg/kg/injection, schedule: Q04DX002 (ip), vehicle: saline with Tween-80
[23] = endpoint: mean survival time, dose: 200.0 mg/kg/injection, schedule: Q04DX002 (ip), vehicle: saline with Tween-80
[24] = endpoint: mean survival time, dose: 400.0 mg/kg/injection, schedule: Q04DX002 (ip), vehicle: saline with Tween-80
[25] = endpoint: mean survival time, dose: 200.0 mg/kg/injection, schedule: Q01DX001 (ip), vehicle: saline
[26] = endpoint: mean survival time, dose: 400.0 mg/kg/injection, schedule: Q01DX001 (ip), vehicle: saline

Measured: T/C

CCCCCC(O)/C=C/Sc1n[nH]c(=O)[nH]c1=O (stereo not drawn)
inactive: [1] 104 % of control | [2] 94 % of control | [3] 98 % of control | [4] 90 % of control | [5] 93 % of control

O=C(Cc1ccccc1)C(O)c1ccccc1 (stereo not drawn)
inactive: [6] 86 % of control | [7] 92 % of control | [8] 87 % of control

O=C(COc1ccc(Cl)c(Cl)c1)Nc1cccc(C(=O)CCl)c1
inactive: [9] 95 % of control | [10] 101 % of control | [11] 103 % of control

O=[N+]([O-])c1ccc(/C=N/O)o1
inactive: endpoint: mean survival time, dose: 12.5 mg/kg/injection, schedule: Q01DX001 (ip), vehicle: saline 93 % of control and 101 % of control | endpoint: mean survival time, dose: 25.0 mg/kg/injection, schedule: Q01DX001 (ip), vehicle: saline 102 % of control | endpoint: mean survival time, dose: 50.0 mg/kg/injection, schedule: Q01DX001 (ip), vehicle: saline 97 % of control and 102 % of control | [12] 100 % of control and 101 % of control and 102 % of control | endpoint: mean survival time, dose: 150.0 mg/kg/injection, schedule: Q01DX001 (ip), vehicle: saline 100 % of control

OC(Cc1ccnc2ccccc12)C(Cl)(Cl)Cl (stereo not drawn)
inactive: [13] 103 % of control | [14] 103 % of control | [15] 97 % of control

O=C(O)C(Br)CCC(Br)C(=O)O (stereo not drawn)
inactive: endpoint: mean survival time, dose: 100.0 mg/kg/injection, schedule: Q01DX001 (ip), vehicle: other 102 % of control | endpoint: mean survival time, dose: 200.0 mg/kg/injection, schedule: Q01DX001 (ip), vehicle: other 102 % of control | endpoint: mean survival time, dose: 400.0 mg/kg/injection, schedule: Q01DX001 (ip), vehicle: other 97 % of control

CC(=O)OCC1OC(OC(C)=O)C(NC(=O)Nc2cccc(N)c2)C(OC(C)=O)C1OC(C)=O (stereo not drawn)
inactive: endpoint: mean survival time, dose: 5.0 mg/kg/injection, schedule: Q04DX003 (ip), vehicle: water 102 % of control | endpoint: mean survival time, dose: 10.0 mg/kg/injection, schedule: Q04DX003 (ip), vehicle: water 96 % of control | endpoint: mean survival time, dose: 20.0 mg/kg/injection, schedule: Q04DX003 (ip), vehicle: water 96 % of control | endpoint: mean survival time, dose: 40.0 mg/kg/injection, schedule: Q04DX003 (ip), vehicle: water 96 % of control | endpoint: mean survival time, dose: 80.0 mg/kg/injection, schedule: Q04DX003 (ip), vehicle: water 98 % of control

CC1OC(n2cc(Br)c(=O)[nH]c2=O)C(O)C(O)C1O (stereo not drawn)
inactive: endpoint: mean survival time, dose: 12.5 mg/kg/injection, schedule: Q01DX005 (ip), vehicle: water 99 % of control | endpoint: mean survival time, dose: 25.0 mg/kg/injection, schedule: Q01DX005 (ip), vehicle: water 101 % of control | endpoint: mean survival time, dose: 50.0 mg/kg/injection, schedule: Q01DX005 (ip), vehicle: water 105 % of control | endpoint: mean survival time, dose: 100.0 mg/kg/injection, schedule: Q01DX005 (ip), vehicle: water 100 % of control | endpoint: mean survival time, dose: 200.0 mg/kg/injection, schedule: Q01DX005 (ip), vehicle: water 99 % of control

O=C(O)CCCCCCC(=O)c1ccccc1
inactive: [16] 98 % of control | [17] 97 % of control | [18] 93 % of control

CC(=O)c1ccc(N=Nc2c(N)nc(N)nc2N)cc1
inactive: [16] 92 % of control | [9] 89 % of control | [17] 97 % of control | [10] 87 % of control | [18] 98 % of control | [11] 89 % of control

O=C1C2C(C(=O)N1c1ccc(F)c([N+](=O)[O-])c1)C1(Cl)C(Cl)=C(Cl)C2(Cl)C1(Cl)Cl (stereo not drawn)
inactive: [19] 108 % of control | [16] 116 % of control | [17] 111 % of control

C1CC[N-]CC1.C1CC[N-]CC1.C1CC[N-]CC1.C1CC[N-]CC1.[Cl][Rh][Cl]
inactive: endpoint: mean survival time, dose: 6.25 mg/kg/injection, schedule: Q04DX003 (ip), vehicle: saline 98 % of control | endpoint: mean survival time, dose: 50.0 mg/kg/injection, schedule: Q01DX009 (ip), vehicle: saline 90 % of control

CCOC(=O)CCCCCSc1nn(C2OC(CO)C(O)C2O)c(=O)[nH]c1=O (stereo not drawn)
inactive: [1] 103 % of control | [2] 98 % of control | [3] 104 % of control | [4] 103 % of control | [5] 97 % of control

O=C1CC(=O)C(Br)=C1Br
inactive: endpoint: mean survival time, dose: 0.75 mg/kg/injection, schedule: Q01DX009 (ip), vehicle: saline with Tween-80 95 % of control | endpoint: mean survival time, dose: 1.5 mg/kg/injection, schedule: Q01DX009 (ip), vehicle: saline with Tween-80 95 % of control | endpoint: mean survival time, dose: 3.0 mg/kg/injection, schedule: Q01DX009 (ip), vehicle: saline with Tween-80 90 % of control

CC(=O)Nc1nc(CCCCc2ccccc2)cc(=O)[nH]1
inactive: endpoint: mean survival time, dose: 37.5 mg/kg/injection, schedule: Q01DX001 (ip), vehicle: saline with Tween-80 100 % of control | [20] 96 % of control | [21] 94 % of control

CN(C)C(=O)SCCSC(=O)N(C)C
inactive: [22] 106 % of control | [23] 92 % of control | [24] 95 % of control

COc1cc2cc(c1Cl)N(C)C(=O)CC(OC(=O)C(C)N(C)C(=O)C(C)C)C1(C)OC1C(C)C1CC(O)(NC(=O)O1)C(OC)/C=C/C=C(C)C2OC (stereo not drawn)
inactive: endpoint: median survival time, dose: 4.0 micrograms/kg/injection, schedule: Q01DX009 (ip), vehicle: Klucel (hydroxypropylcellulose) (HPC) 104 % of control | endpoint: median survival time, dose: 8.0 micrograms/kg/injection, schedule: Q01DX009 (ip), vehicle: Klucel (hydroxypropylcellulose) (HPC) 112 % of control | endpoint: median survival time, dose: 16.0 micrograms/kg/injection, schedule: Q01DX009 (ip), vehicle: Klucel (hydroxypropylcellulose) (HPC) 112 % of control | endpoint: median survival time, dose: 64.0 micrograms/kg/injection, schedule: Q01DX009 (ip), vehicle: Klucel (hydroxypropylcellulose) (HPC) 105 % of control

O=C(c1ccccc1)C12CC3CC1C2C3
inactive: [13] 97 % of control | [14] 100 % of control | [15] 89 % of control

CCCC(CCC)(C(N)=O)C(=O)O
inactive: [12] 97 % of control | [25] 97 % of control | [26] 94 % of control

O=C(COc1ccc(Cl)c(Cl)c1)NCc1cccc([N+](=O)[O-])c1
inactive: [20] 93 % of control | [21] 88 % of control | endpoint: mean survival time, dose: 300.0 mg/kg/injection, schedule: Q01DX001 (ip), vehicle: saline with Tween-80 86 % of control

O=C(CC(=O)c1ccc(Cl)cc1)Cc1ccc2ccccc2n1
inactive: [22] 97 % of control | [23] 97 % of control | [24] 97 % of control

Cc1cc(C)c2[nH]c(=O)c(C)c(C)c2c1
inactive: [12] 96 % of control | [25] 96 % of control | [26] 93 % of control

CCOC(=O)C(C)(C)Oc1ccc(Cl)cc1
inactive: endpoint: mean survival time, dose: 12.5 mg/kg/injection, schedule: Q01DX009 (ip), vehicle: saline with Tween-80 100 % of control and 105 % of control | endpoint: mean survival time, dose: 25.0 mg/kg/injection, schedule: Q01DX009 (ip), vehicle: saline with Tween-80 97 % of control and 98 % of control | [19] 103 % of control and 104 % of control | [6] 94 % of control | [16] 100 % of control and 101 % of control and 103 % of control | [7] 91 % of control | [17] 100 % of control and 101 % of control and 102 % of control | [8] 94 % of control | [18] 100 % of control and 104 % of control and 109 % of control
